Structures are written as SMILES. ≈ marks a conversion by molar mass, not a printed value.

The test system of this assay is A. baumannii strain ATCC19606. The assay is described as follows: Minimum inhibitory concentration (MIC) determination, microbroth dilution (CLSI). Particulars: Acinetobacter baumannii; A. baumannii ATCC19606; CAMHB; read after 20 hours; >=80% growth inhibition; read-out: ATCC19606 MIC. It counts as cell-based. In a few lines: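 After 20 h at 35±2 °C, MIC taken visually and by OD 600 nm as the lowest concentration giving ≥80% growth inhibition. Bacteria (~5×10^5 CFU/ml) were tested per CLSI microbroth dilution against twofold serial compound dilutions in cation-adjusted Mueller Hinton broth.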
Take `CN1CCN(c2cc(-c3cc(Cl)c4c(c3)CNC(=O)[C@H](Cc3c[nH]c5ccccc35)N(C)C(=O)[C@H](CCCCN)NC(=O)[C@H](CCCN)NCc3cccnc3S4)ccn2)CC1` [Example 115, (11S,14S,17S)-14-(4-Amino-butyl)-11-(3-amino-propyl)-25-chloro-17-(1H-indol-3-ylmethyl)-16-methyl-23-[2-(4-methyl-piperazin-1-yl)-pyridin-4-yl]-2-thia-4,10,13,16,19-pentaaza-tricyclo[19.4.0.0*3,8*]pentacosa-1(25),3,5,7,21,23-hexaene-12,15,18-trione]: the MIC turned out to be 2 µg/mL (≈ 2.27 µM).

On to `CN1C(=O)[C@H](CCCCN)NC(=O)[C@H](CCCN)NCc2cccnc2Sc2c(Cl)cc(B(O)O)cc2CNC(=O)[C@@H]1Cc1c[nH]c2ccccc12` [Example 116, {(7S,10S,13S)-10-(4-aminobutyl)-7-(3-aminopropyl)-20-chloro-13-[(1H-indol-3-yl)methyl]-12-methyl-8,11,14-trioxo-5,6,7,8,9,10,11,12,13,14,15,16-dodecahydropyrido[2,3-b][1,5,8,11,14]benzothiatetraazacycloheptadecin-18-yl}boronic acid], for which the MIC was determined as 8 µg/mL (≈ 10.7 µM).

As for `CN1C(=O)[C@H](CCCCN)NC(=O)[C@H](COCCN)NCc2cccnc2Sc2c(Cl)ccc(C(F)(F)F)c2CNC(=O)[C@@H]1Cc1c[nH]c2ccccc12` [Example 118, (11S,14S,17S)-14-(4-Amino-butyl)-11-(2-amino-ethoxymethyl)-25-chloro-17-(1H-indol-3-ylmethyl)-16-methyl-22-trifluoromethyl-2-thia-4,10,13,16,19-pentaaza-tricyclo[19.4.0.0*3,8*]pentacosa-1(25),3,5,7,21,23-hexaene-12,15,18-trione], the minimum inhibitory concentration (MIC) was 0.5 µg/mL (≈ 0.633 µM).

Consider `CN1C(=O)[C@H](COCCN)NC(=O)[C@H](COCCN)NCc2cccnc2Sc2c(Cl)ccc(C(F)(F)F)c2CNC(=O)[C@@H]1Cc1c[nH]c2ccccc12` [Example 119, (11S,14S,17S)-11,14-Bis-(2-amino-ethoxymethyl)-25-chloro-17-(1H-indol-3-ylmethyl)-16-methyl-22-trifluoromethyl-2-thia-4,10,13,16,19-pentaaza-tricyclo[19.4.0.0*3,8*]pentacosa-1(25),3,5,7,21,23-hexaene-12,15,18-trione], for which the MIC is 4 µg/mL (≈ 5.05 µM).

As to `CN1C(=O)[C@H](COCCN)NC(=O)[C@H](CCCN)NCc2cccnc2Sc2c(Cl)ccc(C(F)(F)F)c2CNC(=O)[C@@H]1Cc1c[nH]c2ccccc12` [Example 120, (11S,14S,17S)-14-(2-Amino-ethoxymethyl)-11-(3-amino-propyl)-25-chloro-17-(1H-indol-3-ylmethyl)-16-methyl-22-trifluoromethyl-2-thia-4,10,13,16,19-pentaaza-tricyclo[19.4.0.0*3,8*]pentacosa-1(25),3,5,7,21,23-hexaene-12,15,18-trione], the minimum inhibitory concentration (MIC) was 0.5 µg/mL (≈ 0.645 µM).

`CN1C(=O)[C@H](CCCCN)NC(=O)[C@H](CCC(N)=O)NCc2cccnc2Sc2c(Cl)ccc(Cl)c2CNC(=O)[C@@H]1Cc1c[nH]c2ccccc12` [Example 121, 3-[(11S,14S,17S)-14-(4-Amino-butyl)-22,25-dichloro-17-(1H-indol-3-ylmethyl)-16-methyl-12,15,18-trioxo-2-thia-4,10,13,16,19-pentaaza-tricyclo[19.4.0.0*3,8*]pentacosa-1(25),3,5,7,21,23-hexaen-11-yl]-propionamide]: the MIC was 2 µg/mL (≈ 2.65 µM).

For the molecule `CN1C(=O)[C@H](CCCCN)NC(=O)[C@H](CCCN)NCc2ccncc2Sc2c(Cl)ccc(C(F)(F)F)c2CNC(=O)[C@@H]1Cc1c[nH]c2ccccc12` [Example 122, (11S,14S,17S)-14-(4-Amino-butyl)-11-(3-amino-propyl)-25-chloro-17-(1H-indol-3-ylmethyl)-16-methyl-22-trifluoromethyl-2-thia-5,10,13,16,19-pentaaza-tricyclo[19.4.0.0*3,8*]pentacosa-1(25),3,5,7,21,23-hexaene-12,15,18-trione], the MIC worked out at 1 µg/mL (≈ 1.29 µM).

On to `CN1C(=O)[C@H](CCCCN)NC(=O)[C@H](CCCN)NCc2ccncc2Sc2c(Cl)cc(C(F)(F)F)cc2CNC(=O)[C@@H]1Cc1c[nH]c2ccccc12` [Example 123, (11S,14S,17S)-14-(4-Amino-butyl)-11-(3-amino-propyl)-25-chloro-17-(1H-indol-3-ylmethyl)-16-methyl-23-trifluoromethyl-2-thia-5,10,13,16,19-pentaaza-tricyclo[19.4.0.0*3,8*]pentacosa-1(25),3,5,7,21,23-hexaene-12,15,18-trione], for which the MIC was 1 µg/mL (≈ 1.29 µM).

`CN1C(=O)[C@H](CCCCN)NC(=O)[C@H](CC(N)=O)NCc2cccnc2Sc2c(Cl)cc(Cl)cc2CNC(=O)[C@@H]1Cc1c[nH]c2ccccc12` [Example 127, 2-[(11S,14S,17S)-14-(4-Amino-butyl)-23,25-dichloro-17-(1H-indol-3-ylmethyl)-16-methyl-12,15,18-trioxo-2-thia-4,10,13,16,19-pentaaza-tricyclo[19.4.0.0*3,8*]pentacosa-1(25),3(8),4,6,21,23-hexaen-11-yl]-acetamide]: the MIC is 16 µg/mL (≈ 21.6 µM).

Take `CN1C(=O)[C@H](CCCCN)NC(=O)[C@H](CCCN)NCc2ccccc2Sc2c(cc(-c3ccccc3)cc2C(F)(F)F)CNC(=O)[C@@H]1Cc1c[nH]c2ccccc12` [Example 128, (12S,15,18S)-15-(4-Amino-butyl))-18-(3-amino-propyl)-12-(1H-indo-3-ylmethyl)-13-methyl-6-phenyl-4-trifluoromethyl-2-thia-10,13,16,19-tetraaza-tricyclo[19.4.0.0*3,8*]pentacosa-1(25),3,5,7,21,23-hexaene-11,14,17-trione]: the minimum inhibitory concentration (MIC) was found to be 2 µg/mL (≈ 2.46 µM).

For the molecule `CN1C(=O)[C@H](CCCCN)NC(=O)[C@H](CCCN)NCc2cccnc2Sc2c(Cl)ccc(-c3ccccc3)c2CNC(=O)[C@@H]1Cc1c[nH]c2ccccc12` [Example 129, (11S,14S,17S)-14-(4-Amino-butyl)-11-(3-amino-propyl)-25-chloro-17-(1H-indol-3-ylmethyl)-16-methyl-22-phenyl-2-thia-4,10,13,16,19-pentaaza-tricyclo[19.4.0.0*3,8*]pentacosa-1(25),3(8),4,6,21,23-hexaene-12,15,18-trione], the MIC stood at 0.25 µg/mL (≈ 0.32 µM).

In the case of `CN1C(=O)[C@H](CCCCN)NC(=O)[C@H](CCCN)NCc2cccnc2Sc2c(Cl)cc(N3CCCC3)cc2CNC(=O)[C@@H]1Cc1c[nH]c2ccccc12` [Example 130, (11S,14S,17S)-14-(4-Amino-butyl)-11-(3-amino-propyl)-25-chloro-17-(1H-indol-3-ylmethyl)-16-methyl-23-pyrrolidin-1-yl-2-thia-4,10,13,16,19-pentaaza-tricyclo[19.4.0.0*3,8*]pentacosa-1(25),3(8),4,6,21,23-hexaene-12,15,18-trione], the minimum inhibitory concentration (MIC) was determined as 1 µg/mL (≈ 1.29 µM).

Turning to `CN1C(=O)[C@H](CCCCN)NC(=O)[C@H](CCCN)NCc2cccnc2Sc2c(Cl)ccc(C(F)(F)F)c2CNC(=O)[C@@H]1Cc1c[nH]c2ccc(F)cc12` [Example 131, (11S,14S,17S)-14-(4-Amino-butyl)-11-(3-amino-propyl)-25-chloro-17-(5-fluoro-1H-indol-3-ylmethyl)-16-methyl-22-trifluoromethyl-2-thia-4,10,13,16,19-pentaaza-tricyclo[19.4.0.0*3,8*]pentacosa-1(25),3,5,7,21,23-hexaene-12,15,18-trione], the MIC came out at 0.25 µg/mL (≈ 0.316 µM).

Regarding `COc1cc(-c2cc(Cl)c3c(c2)CNC(=O)[C@H](Cc2c[nH]c4ccccc24)N(C)C(=O)[C@H](CCCCN)NC(=O)[C@H](CCC(N)=O)NCc2cccnc2S3)ccn1` [Example 134, 3-[(11S,14S,17S)-14-(4-Amino-butyl)-25-chloro-17-(1H-indol-3-ylmethyl)-23-(2-methoxy-pyridin-4-yl)-16-methyl-12,15,18-trioxo-2-thia-4,10,13,16,19-pentaaza-tricyclo[19.4.0.0*3,8*]pentacosa-1 (25),3(8),4,6,21,23 exaen-11-yl]-propionamde], the MIC came to 2 µg/mL (≈ 2.42 µM).

For the molecule `CN1C(=O)[C@H](CCCCN)NC(=O)[C@H](CCC(N)=O)NCc2cccnc2Sc2c(Cl)cc(N3CCOCC3)cc2CNC(=O)[C@@H]1Cc1c[nH]c2ccccc12` [Example 137, 3-[(11S,14S,17S)-14-(4-Amino-butyl)-25-chloro-17-(1H-indol-3-ylmethyl)-16-methyl-23-morpholin-4-yl-12,15,18-trioxo-2-thia-4,10,13,16,19-pentaaza-tricyclo[19.4.0.0*3,8*]pentacosa-1(25),3(8),4,6,21,23-hexaen-11-yl]-propionamide], the MIC came out at 32 µg/mL (≈ 39.8 µM).

Turning to `CN1C(=O)[C@H](CCCCN)NC(=O)[C@H](CCCN)NCc2cccnc2Sc2c(Cl)cc(C3=CCOCC3)cc2CNC(=O)[C@@H]1Cc1c[nH]c2ccccc12` [Example 138, (11S,14S,17S)-14-(4-Amino-butyl)-11-(3-amino-propyl)-25-chloro-23-(3,6-dihydro-2H-pyran-4-yl)-17-(1H-indol-3-ylmethyl)-16-methyl-2-thia-4,10,13,16,19-pentaaza-tricyclo[19.4.0.0*3,8*]pentacosa-1(25),3(8),4,6,21,23-hexaene-12,15,18-trione], the MIC came out at 0.5 µg/mL (≈ 0.635 µM).

For `CN1C(=O)[C@H](CCCCN)NC(=O)[C@H](CCCNC(=O)OCc2ccccc2)NCc2cccnc2Sc2c(Cl)ccc(Cl)c2CNC(=O)[C@@H]1Cc1c[nH]c2ccccc12` [Example 139, {3-[(11S,14S,17S)-14-(4-Amino-butyl)-22,25-dichloro-17-(1H-indol-3-ylmethyl)-16-methyl-12,15,18-trioxo-2-thia-4,10,13,16,19-pentaaza-tricyclo[19.4.0.0*3,8*]pentacosa-1(25),3(8),4,6,21,23-hexaen-11-yl]-propyarbamic acid benzyl ester], the MIC was 2 µg/mL (≈ 2.29 µM).

With `CN1C(=O)[C@H](CCCCN)NC(=O)[C@H](CCCN)NCc2ccccc2Sc2c(Cl)cc(-c3ccn(C)n3)cc2CNC(=O)[C@@H]1Cc1c[nH]c2ccccc12` [Example 144, (12S,15S,18S)-15-(4-Amino-butyl)-18-(3-amino-propyl)-4-chloro-12-(1H-indol-3-ylmethyl)-13-methyl-6-(1-methyl-1H-pyrazol-3-yl)-2-thia-10,13,16,19-tetraaza-tricyclo[19.4.0.0*3,8*]pentacosa-1(25),3,5,7,21,23-hexaene-11,14,17-trione], the MIC turned out to be 1 µg/mL (≈ 1.27 µM).

Source of the values: patent US10030047B2 (Hoffmann-La Roche Inc., priority 2015, dated 2018).
